A word on the EC50: it is the concentration giving half of the maximal effect.

The structures appear in SMILES notation.

The results in this text go back to patent publication US11084818B2 (HEPO PHARMACEUTICAL CO., LTD., priority 2016, dated 2021).

Assay [1] concerns the target T1, hTLR7 (Homo sapiens, UniProt Q9NYK1).
T1 construct: host or cells: HEK-Blue hTLR7 (HEK293-derived reporter line)
T1 sequence (Q9NYK1 27-1049): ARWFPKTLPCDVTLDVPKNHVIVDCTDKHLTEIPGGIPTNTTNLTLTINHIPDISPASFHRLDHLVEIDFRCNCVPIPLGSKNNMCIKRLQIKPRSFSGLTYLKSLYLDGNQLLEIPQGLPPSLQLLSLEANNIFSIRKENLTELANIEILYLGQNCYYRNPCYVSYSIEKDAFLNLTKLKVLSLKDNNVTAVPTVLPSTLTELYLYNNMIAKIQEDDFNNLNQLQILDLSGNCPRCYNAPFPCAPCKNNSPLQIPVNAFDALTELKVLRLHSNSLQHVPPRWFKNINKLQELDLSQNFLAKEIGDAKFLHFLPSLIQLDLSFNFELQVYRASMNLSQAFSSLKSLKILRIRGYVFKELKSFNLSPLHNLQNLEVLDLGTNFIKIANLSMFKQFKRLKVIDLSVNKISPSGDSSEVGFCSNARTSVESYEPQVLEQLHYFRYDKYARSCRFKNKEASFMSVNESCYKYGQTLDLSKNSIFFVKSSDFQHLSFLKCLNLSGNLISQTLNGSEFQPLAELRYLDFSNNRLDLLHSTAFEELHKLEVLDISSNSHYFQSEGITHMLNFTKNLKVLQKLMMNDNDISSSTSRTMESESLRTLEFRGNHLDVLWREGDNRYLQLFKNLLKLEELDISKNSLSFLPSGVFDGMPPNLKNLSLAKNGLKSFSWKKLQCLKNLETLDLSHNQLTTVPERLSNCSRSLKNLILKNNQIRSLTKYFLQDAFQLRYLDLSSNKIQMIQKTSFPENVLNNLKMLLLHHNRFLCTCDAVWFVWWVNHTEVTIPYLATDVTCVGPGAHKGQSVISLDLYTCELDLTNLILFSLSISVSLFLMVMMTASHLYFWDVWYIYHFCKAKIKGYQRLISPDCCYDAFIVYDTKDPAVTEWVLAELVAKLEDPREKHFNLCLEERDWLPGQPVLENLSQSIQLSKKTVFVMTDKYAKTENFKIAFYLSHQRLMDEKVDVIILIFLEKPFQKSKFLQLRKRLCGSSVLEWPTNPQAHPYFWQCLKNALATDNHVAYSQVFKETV
The experiment in a line: EC50 of GS9620 for hTLR7 as reported in WO2016023511A1. The following applies: in words, from the EC50 values reported in WO2016023511A1.

The target in assay [2] is T1, hTLR7. In words: Activation activity test of hTLR7 (HEK-Blue hTLR7 cells, QUANTI-Blue OD650). It counts as cell-based. The following applies: 24 hours incubation, read-out: TLR7 (EC50).
The target in assay [3] is T2, hTLR8 (Homo sapiens, UniProt Q9NR97).
T2 construct: host or cells: HEK-Blue hTLR8 (HEK293-derived reporter line)
T2 sequence (Q9NR97 27-1041): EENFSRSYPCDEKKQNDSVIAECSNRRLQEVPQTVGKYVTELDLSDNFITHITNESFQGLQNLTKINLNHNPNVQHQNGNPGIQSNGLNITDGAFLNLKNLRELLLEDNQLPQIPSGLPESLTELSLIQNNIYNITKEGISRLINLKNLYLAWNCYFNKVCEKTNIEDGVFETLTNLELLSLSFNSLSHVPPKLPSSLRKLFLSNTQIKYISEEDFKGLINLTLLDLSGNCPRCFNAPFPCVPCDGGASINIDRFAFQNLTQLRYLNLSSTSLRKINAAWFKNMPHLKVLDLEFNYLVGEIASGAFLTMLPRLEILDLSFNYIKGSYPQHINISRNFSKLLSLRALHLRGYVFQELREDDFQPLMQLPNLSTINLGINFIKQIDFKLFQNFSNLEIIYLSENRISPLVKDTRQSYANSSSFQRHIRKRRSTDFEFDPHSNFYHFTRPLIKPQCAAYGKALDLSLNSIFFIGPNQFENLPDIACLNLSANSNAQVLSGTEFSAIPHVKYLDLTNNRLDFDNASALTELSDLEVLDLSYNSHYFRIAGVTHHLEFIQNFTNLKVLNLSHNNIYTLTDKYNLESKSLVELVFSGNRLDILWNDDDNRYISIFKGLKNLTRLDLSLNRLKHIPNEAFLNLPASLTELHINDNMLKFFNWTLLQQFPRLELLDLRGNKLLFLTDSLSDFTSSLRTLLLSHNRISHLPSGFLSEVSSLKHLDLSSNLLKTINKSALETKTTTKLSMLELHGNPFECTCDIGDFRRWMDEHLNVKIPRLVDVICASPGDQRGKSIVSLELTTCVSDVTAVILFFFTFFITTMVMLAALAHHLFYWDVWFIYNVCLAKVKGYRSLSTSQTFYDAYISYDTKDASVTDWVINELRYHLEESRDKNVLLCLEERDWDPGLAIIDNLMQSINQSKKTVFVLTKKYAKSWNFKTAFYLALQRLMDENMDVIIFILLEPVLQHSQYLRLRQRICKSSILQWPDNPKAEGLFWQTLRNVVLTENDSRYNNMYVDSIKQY
The experiment in a line: Activation activity test of hTLR8 (HEK-Blue hTLR8 cells, QUANTI-Blue OD650). It counts as cell-based. Conditions: HEK-Blue hTLR8 cells, 24 hours incubation; read-out: TLR8 (EC50).

Turning to `CCCCOc1nc(N)c2c(n1)N(Cc1cccc(CN3CCCC3)c1)CC(=O)N2` [GS9620], in assay [1], the “selectivity to TLR7” value is on record as “poor”. `COCCOc1ncc2c(n1)n(Cc1ccc(CN3CCCC3)cc1)c(=O)n2C` [Example 56, 9-(4-(pyrrolidin-1-ylmethyl)benzyl)-7-methyl-2-(2-methoxyethoxy)-7,9-dihydro-8H-purin-8-one]: the 50% effective concentration (EC50) in assay [2] and in assay [3] was above 100 µM in each case. Regarding `COCCOc1ncc2[nH]c(=O)n(Cc3ccc(CN4CCCCC4)cc3)c2n1` [Example 3, 2-(2-methoxyethoxy)-9-(4-(piperidin-1-ylmethyl)benzyl)-7,9-dihydro-8H-purin-8-one], the figures for the EC50 in assay [2] and in assay [3] were 1 to 10 µM and above 100 µM, respectively.

In the case of `COCCOc1ncc2[nH]c(=O)n(Cc3ccc(CCN4CCCC4)cc3)c2n1` [Example 68, 9-(4-(2-(pyrrolidin-1-yl)ethyl)benzyl)-2-(2-methoxyethoxy)-7,9-dihydro-8H-purin-8-one], the half-maximal effective concentration (EC50) in assay [2] is 1 to 10 µM; in assay [3] it was above 100 µM. Turning to `CCCCSc1ncc2[nH]c(=O)n(Cc3cccc(CN4CCCC4)c3)c2n1` [Example 33, 2-butylthio-9-(3-(pyrrolidin-1-ylmethyl)benzyl)-7,9-dihydro-8H-purin-8-one], the EC50 in assay [2] and in assay [3] was above 100 µM throughout. Take `COCCOc1nc(O)c2[nH]c(=O)n(Cc3ccc(CN4CCCC4)cc3)c2n1` [Example 69, 6-hydroxy-2-(2-methoxyethoxy)-9-(4-(pyrrolidin-1-ylmethyl)benzyl)-7,9-dihydro-8H-purin-8-one]: the values for the half-maximal effective concentration (EC50) in assay [2] and in assay [3] were 10 to 100 µM and above 100 µM, respectively.

In the case of `COCCOc1ncc2[nH]c(=O)n(Cc3ccc(CN4CCC[C@@H]4C(=O)OC)cc3)c2n1` [Example 7, methyl (4-((2-(2-methoxyethoxy)-8-oxo-7,8-dihydro-9H-purin-9-yl)methyl)benzyl)-D-pyrrolidine-2-carboxylate], the concentration for a half-maximal effect (EC50) in assay [2] was 10 to 100 µM; in assay [3] it was above 100 µM. `CCCCS(=O)(=O)c1ncc2[nH]c(=O)n(Cc3cccc(CN4CCCC4)c3)c2n1` [Example 35, 2-butylsulfonyl-9-(3-(pyrrolidin-1-ylmethyl)benzyl)-7,9-dihydro-8H-purin-8-one]: the concentration for a half-maximal effect (EC50) in assay [2] and in assay [3] was above 100 µM in each case. As to `CCCC[S+]([O-])c1ncc2[nH]c(=O)n(Cc3cccc(CN4CCCC4)c3)c2n1` (stereo not drawn) [Example 34, 2-butylsulfinyl-9-(3-(pyrrolidin-1-ylmethyl)benzyl)-7,9-dihydro-8H-purin-8-one], the EC50 in assay [2] and in assay [3] was above 100 µM throughout. For the compound `COCCCOc1ncc2[nH]c(=O)n(Cc3ccc(CN4CCCC4)cc3)c2n1` [Example 45, 9-(4-(pyrrolidin-1-ylmethyl)benzyl)-2-(3-methoxypropoxy)-7,9-dihydro-8H-purin-8-one], the results for the EC50 in assay [2] and in assay [3] were 0.001 to 1 µM and above 100 µM, respectively.

On to `COCCOc1nc(C)c2[nH]c(=O)n(Cc3ccc(CN4CCCC4)cc3)c2n1` [Example 58, 9-(4-(pyrrolidin-1-ylmethyl)benzyl)-6-methyl-2-(2-methoxyethoxy)-7,9-dihydro-8H-purin-8-one], for which the half-maximal effective concentration (EC50) in assay [2] and in assay [3] was above 100 µM each time.
